Values quoted from earlier work as cited in patent publication US20200268684A1, “COMPOSITION FOR TREATING AND PREVENTING NEUROLOGICAL DISEASES, NEUROINFLAMATION AND ALZHEIMER'S DISEASE” (HSRX GROUP, LLC, priority 2015, published 2020).

System: Aβ1-40 and Aβ1-42 peptides in SweAPP N2a cells
Conditions: 3-30 μg/mL, 12 hours

Structure (SMILES): COc1cc(/C=C/C(=O)CC(=O)/C=C/c2ccc(O)c(OC)c2)ccc1O [curcumin]
- reduction of Aβ1-40 and Aβ1-42 peptides secreted: significant inhibition
